# Measurements from patent EP0285883A2, “Bactobolin as a prophylactic or therapeutic agent for autoimmune diseases, and as an immuno-suppressive agent” (ZAIDAN HOJIN BISEIBUTSU KAGAKU KENKYU KAI, priority 1987, dated 1988).
# Where “and” joins values, the source holds several entries; their conditions need not be identical. Equal entries are not always repeated.
# Experiments:
# lymph node cells = test: Test 5: lymphocyte proliferative responses of lymph node cells from treated rats (tritiated thymidine uptake); assay type: in vivo
# Description: Using lymph node cells which were separately collected separately from control rats and from the bactobolin-intraperitoneally administered rats on Day 11 (the 11th day after the sensitization), the lymphocyte proliferative responses to specific antigen, as well as the response to Con A were assessed.
# Note 1:- Animals belonging to Bactobolin-administered group were daily intraperitoneally with 0.5mg/kg of bactobolin from Day 1 P.I. to Day 8 P.I., and the control animals were treated with PBS. Note 2:-Lymph node cells were obtained from control and bactobolin-treated rats 11 days after the sensitization. These lymphoid cells were cultured with GPBP (10 µg/mℓ), PPD (10 µg/mℓ) or Con A (2 µg/mℓ) for 3 days. The proliferative responses were assessed by measuring the uptake of tritiated thymidine.
# In the above, CPM means the measured number of count per minute; MBP means myelin basic protein; PPD means a purified protein derivative; and Con A means concanavalin A.
# [1] = test system: Acute Experimental Autoimmune Encephalomyelitis (EAE) of Rat; test: Test 1: acute EAE of rat, treatment during the induction phase; assay type: in vivo, rats; conditions: for Incidence of EAE Number of animals affected/Number of animals tested: 0.5 mg/Kg intraperitoneal daily, observed for 16 days after immunization; for Histologic score (±SD): treatment during the inductive phase, mean of six separate sections incl. spinal cord and brain, ratings zero to 4
# Description: To animals (rats) as sensitized with myelin basic protein/complete Freund adjuvant (hereinafter affreviated as MBP/CFA) for immunization, 0.5 mg/kg of bactobolin was administered by intraperitoneal injection daily from the next day (Day 1) of the immunization to Day 8. This administration period corresponds approximately to the induction phase of EAE.
# mouse = conditions: in mouse, intravenous; cited from earlier work
# EAE [2] = test: Test 3: EAE, treatment started after onset of clinical signs; assay type: in vivo; conditions: 0.5 mg/Kg i.p., started on the day of the first clinical sign
# Description: A study was conducted to determine whether the intraperitoneal administration of bactobolin made after the incidence of EAE was therapeutically effective, or not.
# Passively Induced EAE = test: Test 4: passively induced EAE (transfer of precultured spleen cells); assay type: in vivo, rats; conditions: 0.5 mg/Kg, sacrificed Day 9 P.I.
# EAE [3] = test: Test 2: EAE in MBP/CFA-immunized rats, treatment during the effector phase (Day 8-14); assay type: in vivo; conditions: for Histologic score (±SD): treatment during the effector phase, evaluated for 15 days after the immunization
# Description: Bactobolin was administered intraperitoneally to the MBP/CFA-immunized animals (rats) during a period (Day 8-14), which was considered to correspond primarily to the effector phase of EAE, and during this period the effects of bactobolin was estimated.
smiles,measurement,setting,value
"C[C@H](N)C(=O)N[C@@H]1[C@H]2C(=C(O)C[C@@H](O)[C@@H]2O)C(=O)O[C@]1(C)C(Cl)Cl [Bactobolin, bactobolin]",CPM ± SD (uptake of tritiated thymidine),"lymph node cells; Con A (2 µg/mℓ), 0.5mg/kg i.p. daily Day 1-8 P.I., cells taken 11 days after sensitization, cultured 3 days",suppressed
same,lymphocyte proliferative responses to specific antigen,"lymph node cells; lymph node cells of the bactobolin-administered group, Day 11, result in words",No lymphocyte proliferative responses to specific antigen were observed
same,Paralysis score (±SD),"[1]; 0.5 mg/Kg i.p. daily, Day 1-8 (induction phase), sum of the scores daily estimated during the disease",0 ± 0
same,Incidence of EAE Number of animals affected/Number of animals tested,[1]; Day 1-8 (induction phase),0/5
same,Incidence of EAE Number of animals affected/Number of animals tested,"[1]; Day 1-8 (induction phase), listed as bactobolin",none of the rats developed EAE
same,Histologic score (±SD),[1],0.5 ± 0.6
same,Histologic score (±SD),[1]; listed as bactobolin,suppresses histologic EAE markedly
same,acute LD50 toxicity,mouse,6.25 to 12.5 mg/kg
same,Paralysis score (±SD),EAE [2],4.6 ± 1.2
same,Whole duration of illness (days ± SD),EAE [2],4.4 ± 1.0 days
same,Paralysis score (±SD),EAE [2]; listed as bactobolin,suppressed significantly
same,Whole duration of illness (days ± SD),EAE [2]; listed as bactobolin,no substantial influences were observed
same,Paralysis score (±SD),Passively Induced EAE; recipients administered Day 1 to Day 8 P.I.,0 ± 0
same,Incidence of EAE (days ± SD),"Passively Induced EAE; recipients of 2x10^7 precultured spleen cells, administered Day 1 to Day 8 P.I.",suppressed the incidence of passively induced EAE markedly and 0/2
same,Paralysis score (±SD),"EAE [3]; 0.5 mg/Kg i.p., effector phase, Day 8-14, sacrificed on Day 15 P.I.",0 ± 0
same,Incidence of EAE (number of animals affected number of animals tested),"EAE [3]; 0.5 mg/Kg i.p., effector phase, Day 8-14 after the immunization",suppressed the incidence of EAE markedly and 0/5
same,Histologic score (±SD),EAE [3],0.1 ± 0.1
same,Histologic score (±SD),EAE [3]; listed as bactobolin,suppressed histologic lesion markedly
